{
  "source": "patent US20100184803A1",
  "about": "“Treatment of Lysosomal Storage Diseases” (priority 2007, published 2010)",
  "key": {"[1]": {"system": "UCH-L1", "assay": "Membrane association of UCH-L1 in SH-SY5Y cells (membrane fractionation, 2D electrophoresis, Western blotting)", "format": "cell-based", "conditions": "compared to cells treated with DMSO", "description": "Membrane fractionation: Cells were harvested by scraping and washed with PBS. Cell pellet was suspended in lysis buffer (50 mM Tris-HCl, 1 mM EDTA) supplemented with protease inhibitor cocktail (Sigma) and homogenized by passing through 26G needles 10 times. Suspension was clarified by spinning at 600 g for 5 minutes. Clarified suspension was ultracentrifuged at 100,000 g for 2 hours and separated into membrane and cytosol. Membrane fraction was washed with washing buffer (50 mM Tris-HCl, 1 mM EDTA 1 M NaCl), and pelleted each time with bench-top centrifuge.\n2D electrophoresis: For the isolation of total cellular protein, cultured SH-SY5Y cells maintained as described above were rinsed with ice-cold PBS. Cells were lysed in 1 ml dSDS buffer (50 mM Tris-HCl, pH 8.0 0.1% SDS) supplemented with protease inhibitor cocktail. Lysates were boiled for 3 min, and were treated with Dnase and Rnase as described. […]\nWestern Blotting: Following transfer of SDS gels onto NC membrane, all membranes were blocked with 5% non-fat milk in TBST (50 mM Tris-HCl pH 7.4, 150 mM NaCl, 0.1% Tween 20), and incubated with primary antibody overnight with 1% BSA in TBST, washed three times with TBST, and incubated with horseradish peroxidase-conjugated secondary antibody for 1 hour (Promega). Bound antibodies were detected using enhanced chemiluminascence (NEM)."}, "[2]": {"system": "UCH-L1", "assay": "Total amount and turnover of UCH-L1 in SH-SY5Y cells (pulse-chase, not shown)", "format": "cell-based"}},
  "note": "Entries after “also recorded” stand apart in the source; their conditions may differ.",
  "data": [
    {"smiles": "COC(=O)[C@H](CCSC)NC(=O)c1ccc(NC[C@@H](N)CS)cc1-c1ccccc1", "note": "[FTI-277]", "values": [
      {"measurement": "amount of cytosolic UCH-L1", "setting": "[1]", "value": "without affecting"},
      {"measurement": "amount of membrane bound UCH-L1 (membrane-associated, farnesylated species)", "setting": "[1]", "value": "significant decrease; also recorded: decreased; also recorded: reducing"},
      {"measurement": "total amount of UCH-L1", "setting": "[2]", "value": "reduced"},
      {"measurement": "rate of turnover of UCH-L1", "setting": "[2]; pulse-chase experiment not shown", "value": "increased"}
    ]}
  ]
}
